Measurements: patent US12263140B1, “Methods of reducing the production of greenhouse gases from animals” (AGRICULTURAL SCIENCES LIMITED, priority 2023, dated 2025)

Columns and labels:
Type in all cases: in vivo
sheep [1] = test: Metabolic chamber trial of sheep drenched with vitamin K3
Procedure: Six one year old self shedding wether Wiltshire sheep were ranked by body weight and divided in to three strata or blocks. Block one contained the lightest sheep. Block 2 the mid-sized sheep, and Block 3 the heaviest sheep. Each of the sheep in each block was assigned at random to either be a control or experimental (dosed) individual.
The control group were not dosed at all.
Testing was completed at dosing and after 24 hours of methane emissions using a metabolic chamber. • The metabolic chamber used was made of sealed panel. All joints were made gas tight by sealing compounds, and the doors and hatches were made gas tight by rubber seals. The gas-tight metabolic chamber had viewing windows on one side, the top, and the exit door. Sheep entered after being weighed through an entrance door at one end. All doors and hatches were sealed by pull-down latches. • Air was introduced into the chamber by a 25 mm pipe assembly with the intake located in a pure air space area outside the work and animal holding areas. The air was propelled into the chamber by an electric impeller. The flow rate was set at 5 m·s^−1. Air inside the chamber was mixed by carefully placed baffles and an electric impeller to ensure even composition even when the animal burped out methane periodically.
When a sheep was introduced into the chamber it generally took between 2 and 3 minutes before the gas composition equilibrated and stayed constant. Readings were taken for few minutes once the gas levels had stabilised.
The dosing compound used as noted above, was human grade synthetic vitamin K3. This was dosed to the sheep as an aqueous oral fed drench.
A longer trial to the above was then completed with the same sheep.
Methane, carbon dioxide, volatile organic carbon (VOC) gas emissions and weight gain were measured at intervals during the trial time period of 241.2 hours.
Between being brought in for weighing and measuring, the sheep were allowed to graze normally on a grass field.

sheep [2] = test: Sheep weight gain trial, vitamin K3 in drinking water, 22 days
Excerpt: A trial was completed using three randomly selected Wiltshire hogget wether sheep as the test subjects chosen from a wider group of sheep.
The test subject sheep were allowed access to the dosed water for a total of 5 days, after which the confinement was removed and the test subject and un-dosed control sheep mixed in the same field. From day 6 the test sheep grazed the wider field and received only un-dosed tap water, identical to the control sheep (see below).
The remaining wider group of sheep post removal of the three test subject sheep became the control sheep which were contained in a wider part of the same field as the test subject sheep for the first five days and then mixed with the test subject sheep after five days as noted above. The control sheep had access ad libitum to un-dosed tap water during the first five days of the trial and, as noted, the test sheep and control sheep both had access to the same tap water source ad libitum post the initial five days and to the trial end.
To account for this, two mature ewes from a neighbouring property (“naïve” sheep controls) were introduced to graze in the same field as the control sheep (and post day 5, the control and test sheep). The naïve sheep also had ad libitum access to un-dosed tap water for the duration of the trial. It was envisaged that the naïve sheep would re-infect the control and test sheep with methanogens once in the same field.
The sheep from each group were weighed at the start of the trial and after 22 days had concluded. The weight gain (or loss) was then calculated being the difference between the 22 day weight and that measured at the trial start.

sheep [3] = test: Sheep methane output trial, vitamin K3 in drinking water; details: approximately 2 g per 20 litres drinking water; 48 h to 148 h, FIG. 21
Procedure: A trial was completed using Wiltshire hogget wether sheep.
The test sheep were able to drink further dosed water ad libitum while control sheep only had ad libitum access to tap water (un-dosed). Methane emitted by the test and control sheep was collected and emissions measured at intervals (48 h, 96 h, 120 h, 148 h).

sheep [4] = test: TVOC and HCHO in exhalant breath of sheep dosed with vitamin K3 (skatole proxy)
Procedure: A trial was completed comparing the breath of test subject sheep dosed with vitamin K3 versus that of un-dosed sheep.
Total volatile organic compounds were measured in the exhalant breath of sheep. Two measurements were made being: • TVOC (Total Volatile Organic Compounds); and • HCHO (formaldehyde or equivalents).

sheep [5] = test: CO2 in exhalant of sheep dosed with vitamin K3 in drinking water; details: FIG. 24
sheep [6] = test: Metabolic chamber trial of sheep drenched with vitamin K3; details: Example 15 text; stated to be based on earlier experiments using the Douglas Bag technique
[7] = Controls group: un-dosed water in trial, but dosed with vitamin K3 around two months before
[8] = Dosed group: 1.87 g in 20 litres drinking water, access for 5 days

vitamin K
animal growth rate (sheep [1]; Example 15): increase in animal growth rate
weight gain of control group (dosed two months earlier) relative to naïve sheep (sheep [2]; 22 days): 4-5 ×

CC1=CC(=O)c2ccccc2C1=O [vitamin K3]
methane in one trial sheep (sheep [1]; Example 14, 24 hours post dosing): no detectable trace of methane
average reduction in methane emissions versus control sheep (sheep [1]; Example 14, single drench 75 mg (76 mg) in 15 ml water, dosing to 24 hours): 96.4%
distress during the trial (sheep [1]; Example 15): showed no distress
greatest reduction of methane emissions in any sheep (sheep [1]; Example 15): 100%
lowest value of the emission of methane from any sheep on any occasion (sheep [1]; Example 15): zero
CO2 concentration after dosing, before subtracting air baseline (sheep [1]; Example 15, FIG. 18, metabolic chamber, from 1271 ppm): 610 ppm
slope of best fit linear equation of mean body weight against HOURS (sheep [1]; Example 15, FIG. 19, R2=0.781): 2.18E-01
total VOC in exhalant breath (sheep [1]; Example 15, FIG. 20): decreased over time
average reduction in methane emissions (sheep [1]; Example 15, single drench 75 mg in 15 ml water, 241.2 hours trial): 80.5%
duration of the reduction in methane emissions after the single dose (sheep [1]; Example 15, whole trial duration, no extra dosing): 241.2 h
Daily weight gain (sheep [2]; [7]): 0.064
Wt. Gain (kg) after 22 days (sheep [2]; [7]): 1.400 kg
Daily weight gain (sheep [2]; [8]): 0.238
Wt. Gain (kg) after 22 days (sheep [2]; [8]): 5.233 kg
methane emissions levels lower than control sheep (sheep [3]): 3-4 times
TVOC in breath, less than in un-dosed sheep (sheep [4]; FIG. 22): 4-5 times
impact on favourable indole compounds (sheep [4]; inventor's observations, dosed sheep thrived): no negative impact
CO2 volume produced, less than control sheep (sheep [5]): 3 ×
average reduction in carbon dioxide emissions (sheep [6]): 92%
